Measurements reported in US20240246913A1, “2-CARBOXYL-INDOLE INHIBITORS OF METALLO-BETA-LACTAMASES” (Oxford University Innovation Limited, priority 2021, published 2024).

Key:
VIM-2 = VIM-2 (Escherichia coli, UniProt Q5U7L7); assay: MBL inhibition, FC-5 fluorescence assay, VIM-2; format: biochemical; details: FC-5 cephalosporin substrate, ranges of obtained pIC50, read-out: pIC50 VIM-2 (converted)
Procedure, shortened: (§1)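 Fluorescence read-out (380 nm excitation, 460 nm emission) tracks fluorophore liberated when each enzyme breaks down cephalosporin substrate FC-5. Initial rates across inhibitor concentrations, each run in quadruplicate on the plate, give normalized curves fitted with a variable Hill slope.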

NDM-1 = NDM-1 (Klebsiella pneumoniae, UniProt C7C422); assay: MBL inhibition, FC-5 fluorescence assay, NDM-1; format: biochemical; details: FC-5 cephalosporin substrate, fluorescence; ranges of obtained pIC50; read-out: pIC50 NDM-1 (converted)
NDM-1, sequence (C7C422 29-270, looked up, species assumed): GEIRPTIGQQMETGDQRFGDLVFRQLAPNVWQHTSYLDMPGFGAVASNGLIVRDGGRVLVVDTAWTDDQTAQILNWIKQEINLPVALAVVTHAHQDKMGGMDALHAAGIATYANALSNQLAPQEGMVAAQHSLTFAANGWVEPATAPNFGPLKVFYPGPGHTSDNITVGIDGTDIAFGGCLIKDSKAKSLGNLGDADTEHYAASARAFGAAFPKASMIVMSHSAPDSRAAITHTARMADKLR
Procedure, shortened: as §1

IMP-1 = IMP-1 (Serratia marcescens, UniProt P52699); assay: MBL inhibition, FC-5 fluorescence assay, IMP-1; format: biochemical; details: FC-5 cephalosporin substrate, fluorescence; ranges of obtained pIC50; read-out: pIC50 IMP-1 (converted)
IMP-1, sequence (P52699 19-246, looked up, species assumed): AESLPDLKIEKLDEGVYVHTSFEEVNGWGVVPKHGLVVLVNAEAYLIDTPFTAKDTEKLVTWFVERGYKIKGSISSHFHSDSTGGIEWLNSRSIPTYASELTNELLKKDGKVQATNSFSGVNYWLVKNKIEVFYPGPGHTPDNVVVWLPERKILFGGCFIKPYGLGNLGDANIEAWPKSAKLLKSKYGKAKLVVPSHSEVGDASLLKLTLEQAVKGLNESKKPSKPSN
Procedure, shortened: as §1

VIM-1 = VIM-1 (Pseudomonas aeruginosa, UniProt A0A0F7KYQ8); assay: MBL inhibition, FC-5 fluorescence assay, VIM-1; format: biochemical; details: FC-5 cephalosporin substrate, ranges of obtained pIC50, read-out: pIC50 VIM-1 (converted)
Procedure, shortened: as §1

[1] = tested on: Acinetobacter baumannii NDM-1; assay: Antibiotic susceptibility testing (MIC), AB NDM-1; format: cell-based; details: agar or broth dilution (CLSI/EUCAST)
Description: (§2) Antibiotic susceptibility testing was performed using the agar or broth dilution method, in line with the Clinical and Laboratory Standards Institute (CLSI) and European Committee on Antimicrobial Susceptibility Testing (EUCAST) requirements.

Escherichia coli NDM-7 = assay: Antibiotic susceptibility testing (MIC), EC NDM-7; format: cell-based; details: agar or broth dilution (CLSI/EUCAST)
Description: as §2

Escherichia coli NDM-1 = assay: Antibiotic susceptibility testing (MIC), EC NDM-1; format: cell-based; details: agar or broth dilution (CLSI/EUCAST)
Description: as §2

[2] = Metabolic stability in human hepatocytes; format: in vitro ADME; details: cryopreserved human hepatocytes, 1 μM compound, 37° C., up to 90 min, read-out: Metabolic stability in hepatocytes, in vitro t1/2, Human
Procedure, shortened: (§3)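 Cryopreserved hepatocytes at 1.0×10^6 cells/ml in Williams medium E were incubated with 1 μM compound (final) at 37° C. Samples at 0, 5, 15, 30, 60 and 90 min were quenched with MeCN containing warfarin internal standard and analysed by LC-MS/MS.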

[3] = Metabolic stability in mouse hepatocytes; format: in vitro ADME; details: cryopreserved mouse hepatocytes, 1 μM compound, 37° C., up to 90 min, read-out: Metabolic stability in hepatocytes, in vitro t1/2, Mouse
Procedure, shortened: as §3

[4] = Plasma protein binding, equilibrium dialysis, human plasma; format: in vitro ADME; details: pH 7.4, equilibrium dialysis (RED) 4 hours at 37° C., read-out: Plasma protein binding, fu, Human
Procedure, shortened: (§4)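 Compound at 10 μM in plasma dialysed against 67 mM phosphate buffer pH 7.4 for 4 h at 37° C. in RED device; unbound fraction from buffer and plasma levels by LC-MS/MS. Plasma stability checked in parallel over 4 h at 37° C. versus frozen control.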

[5] = Plasma protein binding, equilibrium dialysis, mouse plasma; format: in vitro ADME; details: pH 7.4, equilibrium dialysis (RED) 4 hours at 37° C., read-out: Plasma protein binding, fu, Mouse
Procedure, shortened: as §4

bacteria = assay: Thigh and/or septicaemia mouse model of infection, with meropenem; format: in vivo; details: NMRI mice; single dose with meropenem subcutaneous 1 h after inoculation; endpoint 3 h after treatment initiation
Description: Female NMRI mice (5-6 weeks old, 26-30 gram, n=5) were rendered neutropenic via intraperitoneal injection of two doses of cyclophosphamide on day 4 and day 1 before infection. The animals were infected via intramuscular injection of an inoculum containing 10^6 CFU/mL of bacteria in the left thigh. The animals were treated with a single dose of meropenem subcutaneous +/− inhibitor 1 h after inoculation, and animals were either euthanised at the start of treatment or at the study endpoint at 3 h after treatment initiation. Clinical scores were monitored at 1 and 4 hours post inoculation and were in all cases mild or moderate. Thighs were aseptically removed from the animals, homogenised, diluted, and plated for incubation. Bacterial counting was performed after 18-22 h of incubation at 35° C. in ambient air.
Immunocompetent female NMRI mice mice (5-6 weeks old, 26-30 gram, n=5) were inoculated intraperitoneally with 0.5 ml inoculum containing 5×10^5 CFU suspended in 5% porcine mucin.
The animals were treated with a single dose of meropenem subcutaneous+/−metallo-b-lactamase inhibitor intravenous 1 h after inoculation. Animals were either euthanised at the start of treatment or at the study endpoint at 3 h after treatment initiation. Clinical scores were monitored at 1 and 4 hours post inoculation and were in all cases mild or moderate. Mice were anaesthetised anesthetized with a buprenorphine/tiletamine/zolazepam cocktail and bled, then euthanized and the peritoneum flushed with 2 ml sterile 0.9% NaCl and collected. The blood and/or peritoneal flush were serially diluted and plated for incubation. Bacterial counting was performed after 18-22 h of incubation at 35° C. in ambient air.

Row | Structure (SMILES) | IC50 (VIM-2) [nM] | IC50 (NDM-1) [nM] | IC50 (IMP-1) [nM] | IC50 (VIM-1) [nM] | MIC values AB NDM-1 [1] | MIC values EC NDM-7 (Escherichia coli NDM-7) | MIC values EC NDM-1 (Escherichia coli NDM-1) | half-life at 1 μM [2] [h] | half-life at 1 μM [3] [h] | fraction unbound at 4 h, 10 μM [4] | fraction unbound at 4 h, 10 μM [5] | Dose required to reduce minim 1 log fold CFU in a thigh and or a sepsis animal model (bacteria)
1 | C[C@@H](c1cccc2c(-c3ccc(NS(C)(=O)=O)c(F)c3)c(C(=O)O)[nH]c12)n1cc(CN2CC(N)C2)oc1=O [IC-57, 7-[(1S)-1-{5-[(3-Aminoazetidin-1-yl)methyl]-2-oxo-2,3-dihydro-1,3-oxazol-3-yl}ethyl]-3-(3-fluoro-4-methanesulfonamidophenyl)-1H-indole-2-carboxylic acid] | 0.1 to 1 | < 0.1 | > 10 | 1 to 10 | A (A = MIC values ≤ 1) | A (A = MIC values ≤ 1) | A (A = MIC values ≤ 1) | 2.5 to 6.67 | < 2.5 | 0.05 to 0.25 | 0.005 to 0.05 | B (B = 30-10 mg/kg)
2 | C[C@@H](c1cccc2c(-c3ccc(CS(C)(=O)=O)c(F)c3)c(C(=O)O)[nH]c12)N1C[C@]2(C[C@@H](CN)C2)OC1=O [IC-60, 7-((1S)-1-(2S,4r)-(2-(aminomethyl)-6-oxo-5-oxa-7-azaspiro[3.4]oct-7-yl)ethyl)-3-(3-fluoro-4-((methylsulfonyl)methyl)phenyl)-1H-indole-2-carboxylic acid] | 0.1 to 1 | < 0.1 | > 10 | 0.1 to 1 | A (A = MIC values ≤ 1) | A (A = MIC values ≤ 1) | A (A = MIC values ≤ 1) | > 6.67 | > 6.67 | > 0.25 | 0.05 to 0.25 | C (C = 5-10 mg/kg)
3 | C[C@@H](c1cccc2c(-c3ccc(CS(C)(=O)=O)c(F)c3)c(C(=O)O)[nH]c12)N1C[C@]2(C[C@H](CN)C2)OC1=O [IC-61, 7-((1S)-1-(2R,4s)-(2-(aminomethyl)-6-oxo-5-oxa-7-azaspiro[3.4]oct-7-yl)ethyl)-3-(3-fluoro-4-((methylsulfonyl)methyl)phenyl)-1H-indole-2-carboxylic acid] | < 0.1 | < 0.1 | 1 to 10 | 0.1 to 1 | B (B MIC values 2 ÷ 8) | A (A = MIC values ≤ 1) | A (A = MIC values ≤ 1) | > 6.67 | > 6.67 | 0.05 to 0.25 | 0.005 to 0.05 | C (C = 5-10 mg/kg)
